Assay [1] is filed under the species Ovis aries. Description: Inhibition of sheep brain tubulin polymerization at 100 uM by fluorescence assay.
The target of assay [2] is Tubulin. Description: Inhibition of tubulin (unknown origin) polymerization. It counts as protein-complex assay, Homo sapiens.
Assay [3] in a line: Inhibition of sheep brain tubulin polymerization by fluorescence assay. Also on record: species or system Ovis aries.

SMILES strings stand for the structures.

As for `COc1ccc(C(=O)c2cc(OC)c(OC)c(OC)c2)cc1O` [PHENSTATIN], the inhibition in assay [1] turned out to be 99%. For the same compound, the IC50 came to 3.4 µM in assay [2] and 3.43 µM in assay [3].

In general, inhibition refers to the change of the read-out against control, counted positive when it falls. Usually IC50 stands for the concentration that inhibits the measured activity by half. A high value points to lower potency.

(Values after ChEMBL document CHEMBL3352214, “Studies on indolizines. Evaluation of their biological properties as microtubule-interacting agents and as melanoma targeting compounds” (Eur J Med Chem, 2015).)
